How the values were obtained:
urethra smooth muscle = assay: In vitro urethra smooth muscle experiment (norepinephrine-induced contraction); design: species or system Wistar rats; Urethra inhibition rate (%): concentration or dose not given beside the values; settings: for IC50: isolated rat prostatic urethra, norepinephrine 3×10^−4 mol/L; for Urethra inhibition rate (%): norepinephrine-induced contraction; for Aorta/Urethra: selectivity ratio of IC50 values
Procedure: Healthy male Wistar rats were hit head to cause faint. The abdominal cavity and the pubic symphysis was quickly cut so as to quickly remove the prostatic urethra, which was immediately placed into a dish filled with 4° C. Kerbs-Henseleit solution (K-H solution). The surrounding tissue were carefully separated, and muscle strips about 3-5 mm were obtained, and the lower end was fixed onto a 20 mL of thermostatic bath and the upper end was connected onto a pressure transducer. Nutrient liquid was K-H solution, and carbogen (95% oxygen and 5% carbon dioxide) was aerated, and the bath temperature was 37° C., and resting tension applied was 0.5 g. The nutrient liquid was replaced every 6-8 mins. Until baseline stabilized, norepinephrine was added with a final concentration of 3×10^−4 mol/L in bath tube. When the contraction curve reached the highest point, it was rinsed immediately to recover to baseline levels. When baseline was stabilized, test drug with different concentrations was added respectively, and incubated 3-5 mins. 60 μL 1×10^−1 M norepinephrine was added with a final concentration of 3×10^−4 mol/L in bath tube, and the contraction curve was recorded.

[1] = tested on: vascular smooth muscle (thoracic aorta); assay: In vitro vascular smooth muscle experiment (norepinephrine-induced contraction of thoracic aorta rings); design: species or system Wistar rats; settings: isolated rat thoracic aorta rings, norepinephrine 10^−7 mol/L
Procedure: Healthy male Wistar rats were hit head to cause faint. The abdominal cavity was quickly cut, and the thoracic aorta was taken out. The attached tissue was separated and cut into 2-3 mm vascular rings. The experiment was carried out in the same manner as in urethral smooth muscle experiment. The resting tension applied was 1 g, and when baseline was stabilized, norepinephrine was added with a final concentration of 10^−7 mol/L in bath tube. When the contraction curve reached the highest point, rinse was performed immediately to recover to baseline levels. When baseline was stabilized, test drug with different concentrations was added respectively, and incubated 3-5 mins. 20 μL 1×10^−4 M norepinephrine was added with a final concentration of 10^−7 mol/L in bath tube, and contraction curve was recorded.

α1A-AR = target: T1, α1A-AR (Homo sapiens, UniProt P35348); assay: Tag-lite receptor binding assay, HEK293 cells expressing SNAP-α1A-AR; settings: for IC50: Tag-lite binding, HEK293 SNAP-α1A-AR; for α1B/α1A: ratio of Tag-lite binding values
T1 construct: expressed in transfected cells; host or cells: HEK293
T1 sequence (P35348 1-466): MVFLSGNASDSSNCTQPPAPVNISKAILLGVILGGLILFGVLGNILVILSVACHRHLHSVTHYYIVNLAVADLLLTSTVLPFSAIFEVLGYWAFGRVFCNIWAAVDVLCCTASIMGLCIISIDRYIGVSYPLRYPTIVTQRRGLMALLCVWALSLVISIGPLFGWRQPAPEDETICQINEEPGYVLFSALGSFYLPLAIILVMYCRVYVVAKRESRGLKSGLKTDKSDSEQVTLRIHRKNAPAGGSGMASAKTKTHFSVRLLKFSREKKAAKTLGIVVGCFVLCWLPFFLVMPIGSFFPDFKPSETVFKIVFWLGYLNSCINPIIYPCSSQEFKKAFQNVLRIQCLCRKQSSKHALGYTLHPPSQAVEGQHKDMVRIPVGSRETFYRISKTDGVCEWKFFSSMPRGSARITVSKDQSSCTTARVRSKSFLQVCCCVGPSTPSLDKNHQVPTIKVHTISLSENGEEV
Excerpt: (§1) Tag-lite assay was used to study receptor binding activity. Tag-lite assay was a combination of SNAP-Tag and HTRF technology, and was used to analyze surface receptors on live cell. SNAPs were small tag fusion proteins which could irreversibly, specifically and covalently bind to substrates via benzylmethyl, and the substrates were benzylmethyl guanine and benzylmethyl cytosine. Substrates and various dyes formed derivatives, and through covalent reaction, the dye was labeled onto SANPs. Plasmid was constructed using pSNAP and α1-AR encoding gene. After transfection into cells, N-terminal fusion protein of SNAP and α1-AR was expressed. The substrate and HTRF fluorescent dye (donor compound Lumi4-Tb) formed a derivative which reacted with SANP-α1-AR fusion protein so that Tb was labeled onto α1-AR. After adding acceptor fluorescent dye-labeled ligand, the receptor and ligand binding experiment was performed.
(§2) HEK293 cells stably expressing SNAP-α1A-AR, SNAP-α1B-AR, SNAP-α1D-AR were seeded in 3 cm dishes, and cultured for 24 hours. 100 nM Tag-lite SNAP Lumi4Tb was added and incubated for 1 h in an incubator. Cells were detached and washed with a labeling buffer for 4 times, and then was added into a 384-well plate in a volume of 10 μL per well. […] After incubation at room temperature for 1 hour, fluorescence intensity changes caused by cell receptor and ligand changes were detected using 665 nm (acceptor) and 620 nm (donor) at same time.
(§3) After incubation with different drugs, the reaction rate of cells to 1-AR fluorescein-labeled known ligand was calculated as follows: Reaction rate %=(D−B)/(S−B)*100%
(§4) The reaction rate of the same drug at different doses was tested using GraphPad Prism software by non-linear regression analysis, and the dose-response curve was obtained and Ki values was measured. Data were obtained from three separate experiments, and each experiment includes three duplicate wells.

α1B-AR = target: T2, α1B-AR (Homo sapiens, UniProt P35368); assay: Tag-lite receptor binding assay, HEK293 cells expressing SNAP-α1B-AR
T2 construct: expressed in transfected cells; host or cells: HEK293
T2 sequence (P35368 1-520): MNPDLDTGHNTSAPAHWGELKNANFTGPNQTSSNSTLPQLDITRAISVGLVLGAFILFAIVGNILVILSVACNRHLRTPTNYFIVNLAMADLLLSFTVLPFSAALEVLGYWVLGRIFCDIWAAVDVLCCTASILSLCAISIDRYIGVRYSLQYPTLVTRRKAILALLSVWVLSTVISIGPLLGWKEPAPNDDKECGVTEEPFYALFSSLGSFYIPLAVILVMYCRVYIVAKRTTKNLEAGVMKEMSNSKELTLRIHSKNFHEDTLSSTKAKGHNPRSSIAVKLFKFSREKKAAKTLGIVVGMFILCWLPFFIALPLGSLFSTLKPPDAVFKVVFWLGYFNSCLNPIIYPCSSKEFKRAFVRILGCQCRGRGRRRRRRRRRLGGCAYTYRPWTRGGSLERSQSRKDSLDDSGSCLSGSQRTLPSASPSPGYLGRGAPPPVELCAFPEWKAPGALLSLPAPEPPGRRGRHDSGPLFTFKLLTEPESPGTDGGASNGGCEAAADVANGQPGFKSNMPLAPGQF
Excerpt: as §1, §2, §3, §4

`COc1cc2c(cc1OC)CN1CCc3cc4c(cc3[C@@H]1C2)OCO4` [DC037009, S-(−)-2,3-methylenedioxy-10,11-dimethoxy-5,8,13,13a-tetrahydro-6H-dibenzo[a,g]quinolizine] was tested, and the IC50 (urethra smooth muscle) was 1.66 nM, the “selectivity (Aorta/Urethra) relative to Silodosin” value (urethra smooth muscle; isolated rat tissues) was 11 folds and the “selectivity (Aorta/Urethra) relative to tamsulosin” value (urethra smooth muscle; isolated rat tissues) was 1671 folds. For the same compound, the “urethra suppression rate compared with positive drugs” value (urethra smooth muscle; isolated rat urethra) was “comparable to that of the positive drugs”, the “Urethra inhibition rate (%)” value (urethra smooth muscle; isolated rat urethra) was 80% and the Aorta/Urethra (urethra smooth muscle; isolated rat tissues) was 873. For the same compound, the IC50 [1] was 1420 nM, the IC50 (α1A-AR) was 2.83 nM and the α1B/α1A (α1A-AR) was 45.3. For the same compound, the IC50 (α1B-AR) was 128 nM.

For `COc1cc2c(cc1OCc1ccccc1)C[C@H]1c3cc4c(cc3CCN1C2)OCO4` [DC037016], the IC50 (urethra smooth muscle) was 5.12 nM, the “Urethra inhibition rate (%)” value (urethra smooth muscle; isolated rat urethra) was 38% and the Aorta/Urethra (urethra smooth muscle; isolated rat tissues) was 1953. The IC50 [1] was 10000 nM, the IC50 (α1A-AR) was 16.6 nM and the α1B/α1A (α1A-AR) was 33.8. For the same compound, the IC50 (α1B-AR) was 560 nM.

`C[C@H](Cc1cc2c(c(C(N)=O)c1)N(CCCO)CC2)NCCOc1ccccc1OCC(F)(F)F` [Silodosin, reference compound] was tested, and the IC50 (urethra smooth muscle) was 0.82 nM, the “Urethra inhibition rate (%)” value (urethra smooth muscle; isolated rat urethra) was 88% and the Aorta/Urethra (urethra smooth muscle; isolated rat tissues) was 76.8. For the same compound, the IC50 [1] was 63 nM, the IC50 (α1A-AR) was 0.07 nM and the α1B/α1A (α1A-AR) was 8.7. It also gave an IC50 (α1B-AR) of 0.61 nM.

Source: patent US9737517B2, “Pharmaceutical use of hexahydro-dibenzo[a,g]quinolizine compounds” (SHANGHAI INSTITUTE OF MATERIA MEDICA, CHINESE ACADEMY OF …, priority 2013, dated 2017)
